Results published in patent publication US20080255186A1, “Pyrazolo[3,4-B]Pyridine Compound, and Its Use as a Pde4 Inhibitor” (priority 2005, published 2008).
Several values for one entry are separate records, joined by “and”; a condition that tells them apart may be missing. Identical values can stand only once.

Experiments:
PDE3 (from bovine aorta) = experiment: PDE3 inhibition (FP or SPA general type of assay); assay type: biochemical; settings: in the particular assays used
Source text: PDE3 can be purified from bovine aorta as described by H. Coste and P. Grondin, “Characterisation of a novel potent and specific inhibitor of type V phosphodiesterase”, Biochem. Pharmacol., 1995, 50, 1577-1585.
The ability of compounds to inhibit catalytic activity at PDE4B or 4D (human recombinant), PDE3 (from bovine aorta), PDE5 (human recombinant) or PDE6 (from bovine retina) can optionally be determined by Scintillation Proximity Assay (SPA) in a 96-well format.
Test compounds (as a solution in DMSO, suitably about 2 microlitre (ul) volume of DMSO solution) are preincubated at ambient temperature (room temperature, e.g. 19-23° C.) in Wallac Isoplates (code 1450-514) with PDE enzyme in 50 mM Tris-HCl buffer pH 7.5, 8.3 mM MgCl2, 1.7 mM EGTA, 0.05% (w/v) bovine serum albumin for 10-30 minutes (usually 30 minutes). […] Bound radioactive product is measured using a WALLAC TRILUX 1450 Microbeta scintillation counter. […] Curves are analysed using ActivityBase and XLfit (ID Business Solutions Limited, 2 Ocean Court, Surrey Research Park, Guildford, Surrey GU2 7QB, United Kingdom). Results are expressed as pIC50 values.
The compound of the invention (e.g. as prepared in Example 1) has also been tested for PDE3, PDE5 and PDE6 inhibition, e.g. using (independently for each PDE type) either a Fluorescence Polarisation (FP) general type of assay or using an SPA general type of assay.

[1] = system: TNF-α (TNF-alpha) production in Human Whole Blood; experiment: Inhibition of TNF-alpha production in Human Whole Blood (MSD assay); assay type: cell-based
Protocol: This is an optional supplementary test, e.g. for potentially orally-administrable PDE4 inhibitors. Also, as the assay may measure the effect of PDE4 inhibitors after loss by protein binding, it might possibly also be relevant to externally-topically-administrable PDE4 inhibitors as protein-binding-loss of compound is possible during transport through the skin.
Test compounds are prepared as a ca. 10 mM stock solution in DMSO and a dilution series prepared in DMSO with 8 successive 3-fold dilutions, either directly from the 10 mM stock solution or from a more dilute solution in DMSO. The compound is added to assay plates using a Biomek Fx liquid handling robot.
Heparinised blood drawn from normal volunteers is dispensed (ca. 100 μl=ca. 100 ul) into microtitre plate wells containing ca. 0.5 or ca. 1.0 μl (ul, microlitres) of an appropriately diluted test compound solution. […] Plasma TNFα content is determined by electrochemiluminescence assay using the MSD technology (see below), the IGEN technology (see below) or by enzyme linked immunosorbant assay (ELISA) (see below). […]
For the Whole Blood assay, plates are washed after 2 hours shaking with a Skanwasher 300 version B (Skatron Instruments AS. PO Box 8, N-3401 Lier, Norway). […] About 150 μl (ul) of Read Buffer T (2×) is added to the plates, which are then read on a MSD Sector 6000. […]

CCc1nc2c(cnn2CC)c(NC2CCOCC2)c1CNC(=O)c1cc(C)no1 [Example 1, N-{[1,6-diethyl-4-(tetrahydro-2H-pyran-4-ylamino)-1H-pyrazolo[3,4-b]pyridin-5-yl]methyl}-3-methyl-5-isoxazolecarboxamide]
PDE4B pIC50 compared with PDE3 pIC50 (selectivity) (PDE3 (from bovine aorta)): inhibits PDE4B more strongly than it inhibits PDE3, PDE5 and PDE6
IC50 ([1]; Homo sapiens, n = about 3 or 4, LPS-stimulated, read-out: Whole Blood, Mean pIC50 (MSD assay) (converted)): ~0.398 nM
Whole Blood individual pIC50 test values (MSD assay) ([1]; individual measurements): ~9.19 and ~9.50 (2×) and > 9.82
